Patent US10946030B2, “Formulations of deoxycholic acid and salts thereof” (ALLERGAN SALES, LLC, priority 2011, dated 2021)
“Also recorded” adds a separate entry of the source.

How the values were obtained:
[1] = pH measurement of sodium deoxycholate solutions; format: physicochemical
Description: The inverse aqueous solubility of sodium deoxycholate, where a more dilute solution (0.5% or 1%) provides more precipitation than a more concentrated solution (2%), is a surprising observation and also evidences that the precipitation phenomena is not directly related to pH, because the pH of the solutions were substantially the same again, especially for the 1% and 2% solutions.

[2] = Concentration dependent precipitation from aqueous sodium deoxycholate solution after storage, rated by visual inspection; format: physicochemical; conditions: 1 week storage; for Precipitation Rating: scale 0 = clear solution, 10 = substantial precipitation
Method: Solutions of sodium deoxycholate at different concentration were evaluated for precipitate formation after 1 week of storage. […] By visual inspection of FIGS. 1-4, the amount of precipitation can be rated as tabulated below.

## C[C@H](CCC(=O)[O-])[C@H]1CCC2C3CC[C@@H]4C[C@H](O)CC[C@]4(C)C3C[C@H](O)[C@@]21C.[Na+] (stereo partly drawn) [Sodium Deoxycholate, sodium (4R)-4-((3R,5R,10S,12S,13R,17R)-3,12-dihydroxy-10,13-dimethylhexadecahydro-1H-cyclopenta[a]phenanthren-17-yl)pentanoate]
[1]; 0.5% w/v solution, reading 1, 24.7 °C
  pH: 7.77
[1]; 0.5% w/v solution, reading 2, 24.5 °C
  pH: 7.71
[1]; 1% w/v solution, reading 1, 24.6 °C
  pH: 7.93
[1]; 1% w/v solution, reading 2, 24.5 °C
  pH: 7.97
[1]; 2% w/v solution, reading 1, 24.9 °C
  pH: 8.07
[1]; 2% w/v solution, reading 2, 24.7 °C
  pH: 8.06
[2]; 0.5% w/v in water + 0.9% w/v benzyl alcohol, FIG. 2
  Precipitate observed (Comment): Significant amounts of precipitate visible
[2]; 0.5% w/v in water + 0.9% w/v benzyl alcohol, FIG. 2, listed as sodium deoxycholate
  Precipitate observed (Comment): a significant amount of precipitate is formed; also recorded: significant amounts of precipitate
[2]; 0.5% w/v in water + 0.9% w/v benzyl alcohol
  Precipitation Rating: 10
[2]; 1% w/v in water + 0.9% w/v benzyl alcohol, FIG. 3
  Precipitate observed (Comment): Significant amounts of precipitate visible
[2]; 1% w/v in water + 0.9% w/v benzyl alcohol, FIG. 3, listed as sodium deoxycholate
  Precipitate observed (Comment): a significant amount of precipitate is formed; also recorded: significant amounts of precipitate, albeit less than that of 0.5% w/v sodium deoxycholate
[2]; 1.0% w/v in water + 0.9% w/v benzyl alcohol
  Precipitation Rating: 7
[2]; 2% w/v in water + 0.9% w/v benzyl alcohol, FIG. 4
  Precipitate observed (Comment): Precipitation visible to the naked eye but
[2]; 2% w/v in water + 0.9% w/v benzyl alcohol, FIG. 4, listed as sodium deoxycholate
  Precipitate observed (Comment): significant amounts of precipitate but substantially less than that observed in FIGS. 2 and 3
[2]; 2.0% w/v in water + 0.9% w/v benzyl alcohol
  Precipitation Rating: 2
